Laboratory results taken from patent US11883398B2, “Dipeptidylpeptidase 4 inhibition enhances lymphocyte trafficking, improving both naturally occurring tumor immunity and immunotherapy” (INSTITUT PASTEUR, priority 2015, dated 2024).
One block for each molecule: values may come before it.

Columns and labels:
[1] = tested on: DPP8/9 over-expressing cells; conditions: cited from earlier work; for selectivity for DPP4 over DPP8 and 9: Huan et al. 2015; for selectivity towards DPP4: Madar et al. 2006, Gilibili et al. 2015
DASH proteases = conditions: WO2013/078059; Narra et al. 2007; cited from earlier work
DPP8 = DPP8 (Homo sapiens, UniProt Q6V1X1); conditions: Verspohl 2012; Huan et al. 2015; cited from earlier work
DPP9 = DPP9 (Homo sapiens, UniProt Q86TI2); conditions: Verspohl 2012; Huan et al. 2015; cited from earlier work
mDPP4 = biological target: T1, mDPP4 (Mus musculus, UniProt P28843); test: DPP4 processing of recombinant chemokines (SELDI-TOF mass spectrometry); type: biochemical; conditions: 10 nM mDPP4, 30 min at 37° C.
T1 construct: purchased Peprotech
Procedure: Recombinant mDPP4, mCXCL10, mCXCL9, mCXCL11, mCCL2, mCCL3, mCCL4, mCCL5, mCXCL12 and mCCL22 were purchased from Peprotech. For surface-enhanced laser desorption/ionization-[…] (SELDI-TOF) mass spectrometry, chemokines were incubated in the presence or absence of 10 nM of mDPP4 for 30 min at 37° C. The digested product was applied onto an H4 protein chip, following the manufacturer's instructions and analyzed using the PROTEINCHIP™ SYSTEMS SERIES 4000 (Ciphergen). Data were analyzed using CIPHERGENEXPRESS Software.

CXCR3-expressing T cells = test: Model of trafficking into the peritoneal cavity; type: in vivo, mouse; conditions: 1 μg chemokine intraperitoneally
Procedure: WT and Dpp4^−/− mice were intraperitoneally injected with PBS or 1 μg of mCXCL10, mCXCL9 or mCCL5 (all from Peprotech). At the indicated time points, mice were sacrificed and peritoneal cells were collected in 10 mL of PBS. For thioglycollate induced peritonitis mice were intraperitoneally injected with thioglycollate 3% weight/volume, 24 hours before collection of peritoneal cells.
Fluorochrome-conjugated anti-mouse CD3 (clone145-2C11), CD8 (clone 53-6.7), CD4 (clone RM4-5), NK1.1 (clone PK136), CD49b (clone DX5), CD25 (clone PC61), B220 (clone RA3-6B2), Ly6G (clone 1A8), Ly6C (clone AL-21), CD11 b (clone M1/70) Siglec-F (clone E50-2440), MHCII IA-IE (clone M5/114.15.2), CD45.2 (clones 56-0454-82 and 109830), Thy-1.1 (clone HIS51), Thy-1.2 (clone 53-2.1), DPP4 (clone H194-112) and CXCR3 (clone CXCR3-173) were from eBiosciences and BD Biosciences. Fluorochrome conjugated anti-F4/80 (clone CI:A3-1) was from AbDserotec. For exclusion of dead cells, Live/Dead fixable Aqua reagent (Invitrogen) was used. For all staining protocols, cell suspensions were incubated with mouse CD16/CD32 Fc Blocking antibodies (BD Biosciences) prior to antibody. For analysis of peritoneal cavity infiltrates, cells were washed and incubated with a cocktail of fluorochrome-conjugated antibodies. For analysis of tumor infiltrates, B16F10 tumors were collected at the indicated time points and digested in PBS supplemented with 2.7 mg/ml of Collagenase (Roche) and 23U/ml of Deoxyribonuclease I (Invitrogen) for 30 min, 37° C. Digestion was terminated by adding PBS supplemented with 2% FCS and 5 mM EDTA (Gibco). Tumor cell suspensions were obtained after filtration over a 70 μm cell strainer. For determination of cell numbers, the […] COUNTING BEADS reagent (Invitrogen) was used. Flow cytometry was performed using a BD LSRFORTESSA or a BD CANTO cytometer, with DIVA software. Computer analysis was done with FLOWJO (Treestar).

B16F10 tumors = test: Flow cytometry of leukocytes infiltrating B16F10 tumors; type: in vivo, mouse; conditions: day 7 B16F10 tumors, 12-14 h after injection
Procedure: B16F10 and M04 (Ovalbumin-expressing B16F10 cells, gift from C. Reis e Sousa) tumor cells were cultured in DMEM (Gibco) supplemented with 10% FCS (PAA), 0.1 mM non-essential amino acids, 1 mM sodium pyruvate, 10 mM Hepes, 70 μM beta-mercaptoethanol and 23 μg/ml gentamycin (all from Gibco). CT26 colon carcinoma cells were cultured in RPMI (Gibco) supplemented as described for DMEM. Cells for injections were passaged 1-2 times after thawing, before use. WT and genetically modified mice were subcutaneously injected with 2×10^5 B16 or 5×10^5 CT26 cells in the shaved right flank. When indicated, mice received an intra-tumoral injection of 1 μg of recombinant mCXCL10, 5 μg CpG-A in DOPTAP or vehicle control. For blocking of chemokine and chemokine receptors, WT mice were intraperitoneally injected with 100 μg of hamster a-mCXCR3 (clone CXCR3-173, BioLegend), 100 μg of hamster α-mCCR5 (clone HM-CCR5, BioLegend), 50 μg of rat anti-mCXCL10 (clone 134013, R&D systems) and 20 μg of rat-α-mCXCR4 (clone 2B11/CXCR4, BD Biosciences) or with respective isotype antibodies (hamster IgG (clone HTK888, BioLegend, used as control for mCXCR3 and mCCR5 blockage); rat IgG2a (clone 54447, R&D systems, used as control for mCXCL10 blockade) and rat IgG2b (clone A95-1, BD Biosciences, used as control for mCXCR4 blockade). Intraperitoneal injection was done one day before and 4, 8 and 12 days after tumor cell injection. For CXCL10 neutralization, antibodies were injected on day 2, 5, 8 and 11 after tumor cell injection. For immunotherapy protocols, mice were intraperitoneally injected with 100 μg of mouse α-CTLA-4 (clone 9D9, Bioxcell), 200 μg of PD1 (clone RMP1-14, Bioxcell), a combination of 100 μg of α-CTLA-4+200 μg of a-PD1 or control isotypes (100 μg […] and 200 μg rat IgG2a (clone 2A3), both from Bioxcell) on day 3, 6 and 9 after tumor cell implantation. For adoptive cell transfer experiments, Pmel-1 Thy-1.1^+Thy-1.1^+, Cxcr3^−/− Thy-1.1^+Thy-1.2^+ Pmel-1 or OT1 splenocytes were activated ex-vivo, by incubation with 1 nM of human gp100 (for Pmel-1 cells) or […] (for OT1 cells) peptides for 1h at room temperature with agitation. Splenocytes were then washed and resuspended in R10 supplemented with 30U/mL of recombinant human IL-2. CD8^+ T cells were expanded for 6-7 days before used. For analysis of tumor infiltrates, activated Cxcr3^+/+ Thy-1.1^+Thy-1.1^+ and Cxcr3^−/− Thy-1.1^+Thy-1.2^+ transgenic Pmel-1 CD8^+ T cells were mixed in a 1:1 ratio (total 1×10^6 cells) and injected intravenously into gender matched tumor-bearing mice (3 days after tumor cell injection). For analysis of tumor growth, activated OT1 cells were injected intravenously (1×10^5 cells per mouse) into gender matched tumor-bearing mice, 3 days after tumor cell injection. Tumor height and width were measured with a caliper and tumor volume was calculated (Elliptical volume=width^2×height×0.523). The model of metastatic melanoma was achieved by intravenous injection of 2×10^5 B16 tumor cells. 15 days after tumor cell injection, lungs were dissected, placed in Fekete's solution and metastatic foci were counted. Lungs with more than 100 metastatic nodules were defined as 100.
Fluorochrome-conjugated anti-mouse CD3 (clone145-2C11), CD8 (clone 53-6.7), CD4 (clone RM4-5), NK1.1 (clone PK136), CD49b (clone DX5), CD25 (clone PC61), B220 (clone RA3-6B2), Ly6G (clone 1A8), Ly6C (clone AL-21), CD11 b (clone M1/70) Siglec-F (clone E50-2440), MHCII IA-IE (clone M5/114.15.2), CD45.2 (clones 56-0454-82 and 109830), Thy-1.1 (clone HIS51), Thy-1.2 (clone 53-2.1), DPP4 (clone H194-112) and CXCR3 (clone CXCR3-173) were from eBiosciences and BD Biosciences. Fluorochrome conjugated anti-F4/80 (clone CI:A3-1) was from AbDserotec. For exclusion of dead cells, Live/Dead fixable Aqua reagent (Invitrogen) was used. For all staining protocols, cell suspensions were incubated with mouse CD16/CD32 Fc Blocking antibodies (BD Biosciences) prior to antibody. […]

T1 sequence (P28843 whole entry): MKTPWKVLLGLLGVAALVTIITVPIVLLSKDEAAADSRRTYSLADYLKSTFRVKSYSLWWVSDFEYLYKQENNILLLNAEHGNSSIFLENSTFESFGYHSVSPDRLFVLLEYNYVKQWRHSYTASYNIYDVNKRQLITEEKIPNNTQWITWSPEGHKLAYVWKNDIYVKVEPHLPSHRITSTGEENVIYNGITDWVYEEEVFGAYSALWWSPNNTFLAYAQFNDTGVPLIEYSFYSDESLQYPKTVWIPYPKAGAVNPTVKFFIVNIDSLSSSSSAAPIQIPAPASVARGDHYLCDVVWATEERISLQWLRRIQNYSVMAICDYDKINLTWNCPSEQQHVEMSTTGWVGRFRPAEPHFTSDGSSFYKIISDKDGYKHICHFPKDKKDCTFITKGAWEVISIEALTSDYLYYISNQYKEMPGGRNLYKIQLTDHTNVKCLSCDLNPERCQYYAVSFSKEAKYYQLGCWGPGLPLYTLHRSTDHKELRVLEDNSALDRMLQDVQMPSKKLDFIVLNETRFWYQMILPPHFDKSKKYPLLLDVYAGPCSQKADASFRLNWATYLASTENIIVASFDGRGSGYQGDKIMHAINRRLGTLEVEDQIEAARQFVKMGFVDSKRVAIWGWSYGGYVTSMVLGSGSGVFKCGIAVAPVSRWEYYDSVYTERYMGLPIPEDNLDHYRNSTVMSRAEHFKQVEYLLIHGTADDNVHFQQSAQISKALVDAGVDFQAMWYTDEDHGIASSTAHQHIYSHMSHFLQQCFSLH
DPP8, sequence (Q6V1X1 whole entry, species assumed): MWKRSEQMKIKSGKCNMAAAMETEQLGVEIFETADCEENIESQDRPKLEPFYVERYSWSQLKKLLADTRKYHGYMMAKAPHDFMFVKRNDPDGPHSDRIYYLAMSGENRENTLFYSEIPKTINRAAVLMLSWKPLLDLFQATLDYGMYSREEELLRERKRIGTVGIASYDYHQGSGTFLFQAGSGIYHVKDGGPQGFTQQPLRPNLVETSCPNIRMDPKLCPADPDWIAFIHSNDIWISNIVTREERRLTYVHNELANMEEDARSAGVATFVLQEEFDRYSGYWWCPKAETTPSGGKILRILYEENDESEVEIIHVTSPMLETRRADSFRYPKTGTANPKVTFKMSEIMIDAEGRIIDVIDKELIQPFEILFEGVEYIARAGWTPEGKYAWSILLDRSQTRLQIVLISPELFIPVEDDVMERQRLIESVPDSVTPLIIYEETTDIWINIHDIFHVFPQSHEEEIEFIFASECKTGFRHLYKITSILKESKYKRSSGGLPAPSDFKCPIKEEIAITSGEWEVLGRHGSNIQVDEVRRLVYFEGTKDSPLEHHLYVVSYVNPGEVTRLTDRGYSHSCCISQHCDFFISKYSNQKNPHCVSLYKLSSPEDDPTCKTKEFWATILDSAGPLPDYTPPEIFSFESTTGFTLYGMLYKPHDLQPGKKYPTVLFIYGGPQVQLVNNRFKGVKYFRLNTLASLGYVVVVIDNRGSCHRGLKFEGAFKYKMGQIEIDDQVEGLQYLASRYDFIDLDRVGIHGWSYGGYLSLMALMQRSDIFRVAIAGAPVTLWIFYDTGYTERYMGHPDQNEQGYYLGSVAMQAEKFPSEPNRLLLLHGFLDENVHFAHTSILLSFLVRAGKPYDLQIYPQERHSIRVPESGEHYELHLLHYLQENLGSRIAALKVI
DPP9, sequence (Q86TI2 whole entry, species assumed): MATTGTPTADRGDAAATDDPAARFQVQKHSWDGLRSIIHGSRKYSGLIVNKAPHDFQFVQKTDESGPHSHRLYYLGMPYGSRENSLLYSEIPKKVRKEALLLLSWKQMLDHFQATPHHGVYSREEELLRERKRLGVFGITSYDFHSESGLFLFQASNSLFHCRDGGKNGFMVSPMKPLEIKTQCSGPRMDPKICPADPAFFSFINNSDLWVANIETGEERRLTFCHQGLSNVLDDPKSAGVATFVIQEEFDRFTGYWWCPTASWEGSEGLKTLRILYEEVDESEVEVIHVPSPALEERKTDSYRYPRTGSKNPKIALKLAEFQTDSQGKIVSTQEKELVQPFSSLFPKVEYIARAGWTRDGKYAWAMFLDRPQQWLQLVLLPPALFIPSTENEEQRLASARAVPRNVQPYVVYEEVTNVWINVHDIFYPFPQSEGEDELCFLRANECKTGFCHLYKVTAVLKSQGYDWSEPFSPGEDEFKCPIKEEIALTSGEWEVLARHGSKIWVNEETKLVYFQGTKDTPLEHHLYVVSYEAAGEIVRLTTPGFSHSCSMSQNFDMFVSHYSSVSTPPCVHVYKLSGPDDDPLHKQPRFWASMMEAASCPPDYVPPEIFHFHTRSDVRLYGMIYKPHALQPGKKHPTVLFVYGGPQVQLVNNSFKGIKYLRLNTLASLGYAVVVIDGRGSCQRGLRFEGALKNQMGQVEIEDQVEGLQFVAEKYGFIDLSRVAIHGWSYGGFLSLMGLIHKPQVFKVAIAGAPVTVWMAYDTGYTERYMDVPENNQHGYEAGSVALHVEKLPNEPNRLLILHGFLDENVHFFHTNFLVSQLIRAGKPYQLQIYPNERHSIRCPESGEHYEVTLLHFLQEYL

Molecule: C#C[C@H]1CC[C@@H](C#N)N1C(=O)CNC1(C)CCN(c2cc(C(=O)O)ccn2)CC1 [ABT-279]
- selectivity for DPP4 over DPP8 and 9 [1]: highly-selective inhibitors of DPP4
- selectivity towards DPP4 [1]: highly selective towards DPP4

Molecule: N[C@H]1CC(C(=O)N2CCn3c(nnc3C(F)(F)F)C2)=CC[C@@H]1c1cc(F)c(F)cc1F [ABT-341]
- selectivity for DPP4 over DPP8 and 9 [1]: highly-selective inhibitors of DPP4
- selectivity towards DPP4 [1]: highly selective towards DPP4

Molecule: CC(C)(C)[C@H](N)C(=O)N1CCC[C@H]1B(O)O [ARI-4175]
- inhibition of DASH proteases (DASH proteases): inhibiting a multitude of DASH proteases

Molecule: CC(C)[C@H](N)C(=O)N1CCC[C@H]1B(O)O [Val-boroPro]
- inhibition of DASH proteases (DASH proteases): inhibiting a multitude of DASH proteases

Molecule: Cn1c(=O)cc(N2CCC[C@@H](N)C2)n(Cc2ccccc2C#N)c1=O [alogliptin]
- effect on DPP8 activity (DPP8): no effect
- effect on DPP9 activity (DPP9): no effect

Molecule: COc1cc2c(cc1OC)[C@@H]1C[C@H](N)[C@@H](N3C[C@@H](CF)CC3=O)CN1CC2 [carmegliptin]
- selectivity for DPP4 over DPP8 and 9 [1]: highly-selective inhibitors of DPP4
- selectivity towards DPP4 [1]: highly selective towards DPP4

Molecule: N#C[C@@H]1C[C@H](F)CN1C(=O)[C@@H](N)C(c1ccc(F)cc1)c1ccc(F)cc1 [denagliptin]
- selectivity for DPP4 over DPP8 and 9 [1]: highly-selective inhibitors of DPP4
- selectivity towards DPP4 [1]: highly selective towards DPP4

B3: mCXCL9: recombinant mouse chemokine (Peprotech) (protein, UniProt P18340 22-126, looked up)
C-X-C motif chemokine 9: TLVIRNARCSCISTSRGTIHYKSLKDLKQFAPSPNCNKTEIIATLKNGDQTCLDPDSANVKKLMKEWEKKISQKKKQKRGKKHQKNMKNRKPKTPQSRRRSRKTT
- susceptibility to DPP4 N-terminal truncation (mDPP4): insensitive to DPP4-mediated truncation
- chemokine-induced leukocyte migration into the peritoneal cavity (CXCR3-expressing T cells; WT and Dpp4-/- mice, 6 h): migration of NK cells into the peritoneal cavity

Further lines, with some results ahead:

- susceptibility to DPP4 N-terminal truncation (mDPP4): in vitro cleavage
Molecule: mCCL2: recombinant mouse chemokine (Peprotech)

- susceptibility to DPP4 N-terminal truncation (mDPP4): in vitro cleavage
Molecule: mCXCL12: recombinant mouse chemokine (Peprotech)

- susceptibility to DPP4 N-terminal truncation (mDPP4): in vitro cleavage
B1: mCCL3: recombinant mouse chemokine (Peprotech) (protein, UniProt P10855 24-92, looked up)
C-C motif chemokine 3: APYGADTPTACCFSYSRKIPRQFIVDYFETSSLCSQPGVIFLTKRNRQICADSKETWVQEYITDLELNA

- susceptibility to DPP4 N-terminal truncation (mDPP4): in vitro cleavage
B2: mCCL4: recombinant mouse chemokine (Peprotech) (protein, UniProt P14097 24-92, looked up)
C-C motif chemokine 4: APMGSDPPTSCCFSYTSRQLHRSFVMDYYETSSLCSKPAVVFLTKRGRQICANPSEPWVTEYMSDLELN

- susceptibility to DPP4 N-terminal truncation (mDPP4): sensitive to DPP4 N-terminal truncation
B4: mCXCL10: recombinant full length mouse CXCL10 (Peprotech) (protein, UniProt P17515 22-98, looked up)
C-X-C motif chemokine 10: IPLARTVRCNCIHIDDGPVRMRAIGKLEIIPASLSCPRVEIIATMKKNDEQRCLNPESKTIKNLMKAFSQKRSKRAP
- lymphocyte recruitment into the tumor parenchyma after intratumoral mCXCL10 (B16F10 tumors): no increase in lymphocyte migration
- infiltration of CXCR3-expressing T cells into the peritoneal cavity in control mice (CXCR3-expressing T cells; control chow): failed to induce significant infiltration of CXCR3-expressing T cells

- susceptibility to DPP4 N-terminal truncation (mDPP4): in vitro cleavage
B5: mCCL22: recombinant mouse chemokine (Peprotech) (protein, UniProt O88430 25-92, looked up)
C-C motif chemokine 22: GPYGANVEDSICCQDYIRHPLPSRLVKEFFWTSKSCRKPGVVLITVKNRDICADPRQVWVKKLLHKLS
